# According to ChEMBL document CHEMBL1201862, “PubChem BioAssay data set” (2004):
#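 How tested: cells in 96-well plates exposed to compound for 48 hours at five concentrations. GI50 marks 50% less growth.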 Active and inactive are the calls of the source. No stated cut-off is given here; in the data, active = GI50 up to about 1.1 µM and inactive = higher.
# How the values were obtained:
# Experiment in all cases: NCI anticancer screen, dose series, 48 h
# [1] = system: OVCAR-3
# [2] = system: SF-268
# [3] = system: HOP-62
# [4] = system: SK-OV-3
# [5] = system: K562
# [6] = system: RPMI-8226
# [7] = system: CAKI-1
# [8] = system: A498
# [9] = system: IGROV-1
# [10] = system: SR
# [11] = system: LOX IMVI
# [12] = system: A549
# [13] = system: U-251
# [14] = system: NCI-H460
# [15] = system: Malme-3M
# [16] = system: HCC 2998
# [17] = system: NCI-H522
# [18] = system: SN12C
# [19] = system: HCT-15
# [20] = system: MDA-MB-231
Structure (SMILES),GI50 [1],GI50 [2],GI50 [3],GI50 [4],GI50 [5],GI50 [6],GI50 [7],GI50 [8],GI50 [9],GI50 [10],GI50 [11],GI50 [12],GI50 [13],GI50 [14],GI50 [15],GI50 [16],GI50 [17],GI50 [18],GI50 [19] [µM],GI50 [20]
O=S(=O)(O)CS(=O)(=O)OCCCl,> 100 µM (inactive),> 100 µM (inactive),> 100 µM (inactive),> 100 µM (inactive),> 100 µM (inactive),> 100 µM (inactive),> 100 µM (inactive),> 100 µM (inactive),> 100 µM (inactive),> 100 µM (inactive),> 100 µM (inactive),> 100 µM (inactive),> 100 µM (inactive),> 100 µM (inactive),> 100 µM (inactive),> 100 µM (inactive),> 100 µM (inactive),> 100 µM (inactive),,
Cc1cc2ncc3c(=O)n(NS(=O)(=O)c4ccc(N)cc4)ccc3n2n1,> 100 µM (inactive),> 100 µM (inactive),> 100 µM (inactive),> 100 µM (inactive),,,> 100 µM (inactive),70.8 µM (inactive),> 100 µM (inactive),,> 100 µM (inactive),> 100 µM (inactive),> 100 µM (inactive),> 100 µM (inactive),36.3 µM (inactive),,> 100 µM (inactive),> 100 µM (inactive),> 100,> 100 µM (inactive)
CC(C)(/N=N/C(C)(C)C1=NCCN1)C1=NCCN1,> 100 µM (inactive),> 100 µM (inactive),> 100 µM (inactive),,> 56.5 µM (inactive),,> 83.9 µM (inactive),> 100 µM (inactive),> 100 µM (inactive),,> 66.1 µM (inactive),,> 100 µM (inactive),> 100 µM (inactive),> 100 µM (inactive),> 100 µM (inactive),,> 78.5 µM (inactive),> 100,> 100 µM (inactive)
Brc1ccc(/N=C/C=C(\Nc2ccc(Br)cc2)C23CC4CC(CC(C4)C2)C3)cc1,14.1 µM (inactive),10.2 µM (inactive),19.1 µM (inactive),18.6 µM (inactive),4.5 µM (inactive),14.7 µM (inactive),11.4 µM (inactive),14.1 µM (inactive),11.3 µM (inactive),,1.91 µM (inactive),22.5 µM (inactive),14.4 µM (inactive),6.12 µM (inactive),19.1 µM (inactive),16 µM (inactive),10.9 µM (inactive),20.6 µM (inactive),6.34,15.6 µM (inactive)
c1ccc(-c2nnc(CCCCCCCCc3nnc(-c4ccccc4)o3)o2)cc1,65 µM (inactive),> 100 µM (inactive),97.3 µM (inactive),> 100 µM (inactive),34.7 µM (inactive),,46 µM (inactive),16.1 µM (inactive),66.5 µM (inactive),,48.9 µM (inactive),32 µM (inactive),53 µM (inactive),50.5 µM (inactive),> 100 µM (inactive),< 0.01 µM (active),25.9 µM (inactive),> 100 µM (inactive),> 100,12.2 µM (inactive)
CC(C)(Oc1ccc(Cl)cc1)C(=O)N(C(=O)N1CCCCC1)c1ccccc1,23.9 µM (inactive),20.1 µM (inactive),,19.8 µM (inactive),8.17 µM (inactive),7.55 µM (inactive),14.4 µM (inactive),17 µM (inactive),5.09 µM (inactive),,11.4 µM (inactive),,14.2 µM (inactive),,12 µM (inactive),,,17 µM (inactive),6.28,10.6 µM (inactive)
